# Source: patent publication US7981896B2 (Athersys, Inc., priority 2006, dated 2011)
# Target: T1, human histamine H3 receptor (Homo sapiens, UniProt Q9Y5N1)
# T1 construct: endogenous in cells; host or cells: HT1080-Gqαi5 RAGE clone (RAGE-H3), human fibrosarcoma line; integrated RAGE vector pFG8-HH3 supplies exon 1, the cell's own gene supplies the other exons
# Assay: Competition radioligand binding assay with [125I]iodoproxyfan on membranes of RAGE-H3 (HT1080-Gqαi5) cells expressing human H3 receptor
# Conditions: ~0.15 nM [125I]iodoproxyfan, 1.5 hrs at room temperature, head does not name the quantity (apparent Ki by Cheng-Prussof)
# Description: Representative compounds of the present invention that were prepared by the procedures of Examples 1-83 were evaluated in binding assays against cells expressing human H3 receptor by the following procedure.
# [^125I]iodoproxyfan (2000 Ci/mmol) was obtained from Amersham Bioscience (Piscataway, N.J.). All other chemicals were either from Sigma-Aldrich (St. Louis, Mo.) or Tocris Cookson Inc. (Ellisville, Mo.).
# The human histamine H3 receptor was stably expressed in HT1080 cells containing the chimeric G-protein, Gq[…]i5 (Coward et al., Anal Biochem 1999; 270:242-8). HT1080-Gqαi5 cells were grown in alpha-modified MEM containing 10% fetal bovine serum and 7 μg/ml blasticidin at 37° C. in 5% CO2/95% atmosphere. Cells (4.8×10^9) were irradiated with 50 rads from a ^137Cs source and the pFG8-HH3 RAGE (Random Activation of Gene Expression; see Harrington et al., Nature Biotechnology. 2001; 19:440-45) vector was subsequently integrated into the cells via electroporation (250V, 600 μF, 50Ω). The RAGE vector pFG8-HH3 contained cDNA sequence coding for the first exon (83 amino acids) of human H3 receptor. After electroporation, cells were plated in T75 flasks and grown in alpha-modified MEM. The culture medium was replaced 48 hrs after electroporation with alpha-modified MEM, 10% fetal bovine serum, 500 μg/ml hygromycin B and 3 μg/ml puromycin. Medium was replaced every four days during cell expansion. To identify RAGE activated cells expressing the H3 receptor, pools of approximately 10,000 colonies (5×10^7-1.5×10^8 cells total) were screened by PCR for the desired gene product (using primers specific to the RAGE vector and exon 2 of the H3 receptor). […] Positive 100 cells/well pools were identified by PCR, confirmed by sequencing, and subsequently subcloned to 0.8 cells/well. Once clones expressing the H3 receptor were identified by PCR analysis, assays (FLIPR or radioligand binding) were performed to confirm that the activated gene produced functional protein. The protein expression in the initial clones obtained from the RAGE library was increased by growth in the presence of methotrexate. Since the integrated RAGE vector contains the DHFR gene, such treatment selects for cells that have amplified the genetic locus containing the RAGE insert. Subclones obtained after methotrexate amplification were tested for functional activity in FLIPR assays to identify the clone that was most suitable for HTS. The final HT1080-Gqαi5 RAGE clone (RAGE-H3) expressing the human histamine H3 receptor was grown in alpha-modified MEM containing 10% fetal bovine serum, 3 μg/ml puromycin, 500 μg/ml hygromycin B, 3.2 μM methotrexate at 37° C. in 5% CO2/95% atmosphere.
# RAGE-H3 cells (10^9) were washed twice with cold PBS, scraped off the plates, and centrifuged at 1000×g for 5 minutes. Cells were resuspended in ice-cold 10 mM Tris HCl, pH 7.4, containing 5 mM EDTA and protease inhibitor cocktail tablets (Roche Molecular Biochemicals). After incubating on ice for 10 min, the cells were homogenized with a dounce homogenizer or a polytron tissue grinder, and centrifuged at 1000×g for 10 min at 4° C. The resulting supernatant was centrifuged at 32,000×g for 30 min at 4° C. The membrane pellets were resuspended in 50 mM Tris HCl, pH 7.4, and stored at −80° C. until use. Protein concentration was determined by the Bradford method (Bio-Rad Laboratories, CA).
# Binding assays were carried out in 96-well polypropylene plates in 50 mM Tris HCl, pH 7.4, containing 1 mM EDTA. Reaction mixtures contained 100 μl of membrane suspension, 50 μl of 4% DMSO, and 50 μl of increasing amounts of [^125I]iodoproxyfan (final concentration 0.0005-1.8 nM for human H3 receptor saturation binding assay). Nonspecific binding was defined by adding 10 μM clobenpropit to the reaction mixtures. […]
# T1 sequence (Q9Y5N1 whole entry): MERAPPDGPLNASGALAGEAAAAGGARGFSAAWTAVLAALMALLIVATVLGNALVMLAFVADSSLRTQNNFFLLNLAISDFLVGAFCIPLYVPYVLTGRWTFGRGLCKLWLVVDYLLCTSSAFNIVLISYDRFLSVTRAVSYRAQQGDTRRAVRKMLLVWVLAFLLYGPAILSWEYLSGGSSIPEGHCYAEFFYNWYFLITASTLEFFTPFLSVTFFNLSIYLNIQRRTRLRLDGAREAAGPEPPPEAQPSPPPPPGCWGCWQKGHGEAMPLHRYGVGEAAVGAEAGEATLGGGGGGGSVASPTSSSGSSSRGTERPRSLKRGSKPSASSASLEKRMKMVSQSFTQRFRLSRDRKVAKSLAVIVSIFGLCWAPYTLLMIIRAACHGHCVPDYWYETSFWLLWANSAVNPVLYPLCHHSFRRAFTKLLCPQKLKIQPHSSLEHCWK
row,Ki,Molecule
1,< 10 nM,"Cc1cc(C(C)(C)C)nn1-c1ccc(OCCCN2CCCCC2)cc1 [Example 27, 3-tert-Butyl-5-methyl-1-[4-(3-piperidin-1-ylpropoxy)-phenyl]-1H-pyrazole]"
2,< 10 nM,"Cc1c2c(nn1-c1ccc(OCCCN3CCCCC3)cc1)CCC2 [Example 60, 3-Methyl-2-[4-(3-piperidin-1-yl-propoxy)-phenyl]-2,4,5,6-tetrahydro-cyclopentapyrazole]"
3,< 10 nM,"Cc1cc(C(=O)NC2CCCCC2)n(-c2ccc(OC3CCN(C4CCCC4)CC3)cc2)n1 [Example 10, 2-[4-(1-Cyclopentyl-piperidin-4-yloxy)phenyl]-5-methyl-2H-pyrazole-3-carboxylic acid cyclohexylamide]"
4,< 10 nM,"Cc1cc(C(=O)NC2CCCCC2)n(-c2ccc(OC3CCN(C4CCC4)CC3)cc2)n1 [Example 13, 2-[4-(1-Cyclobutylpiperidin-4-yloxy)phenyl]-5-methyl-2H-pyrazole-3-carboxylic acid cyclohexylamide]"
5,< 1 nM,"Cc1cc(C(=O)Nc2ccccc2)n(-c2ccc(OCCCN3CCCC3)cc2)n1 [Example 81, 5-Methyl-2-[4-(3-pyrrolidin-1-ylpropoxy)phenyl]-2H-pyrazole-3-carboxylic acid phenylamide]"
6,< 10 nM,"CC(C)(C)c1cc(-c2ccccc2)n(-c2ccc(OCCCN3CCCC3)cc2)n1 [Example 42, 3-tert-Butyl-5-phenyl-1-[4-(3-pyrrolidin-1-ylpropoxy)phenyl]-1H-pyrazole]"
7,< 10000 nM,"CN(C)C1CCN(CCCOc2ccc(-n3nc(C(F)(F)F)cc3-c3ccccc3)cc2)C1 (centres unmarked) [Example 52, Dimethyl-(1-{3-[4-(5-phenyl-3-trifluoromethyl-pyrazol-1-yl)-phenoxy]-propyl}-pyrrolidin-3-yl)-amine]"
8,< 1 nM,"Cc1cc(C(=O)NC2CCCCC2)n(-c2ccc(OCCCN3CCC[C@H]3C)cc2)n1 [Example 74, 5-Methyl-2-{4-[3-(2R-methylpyrrolidin-1-yl)propoxy]phenyl}-2H-pyrazole-3-carboxylic acid cyclohexylamide]"
9,< 10 nM,"Cc1nn(-c2ccc(OCCCN3CCCC3)cc2)c(C)c1C [Example 36, 3,4,5-Trimethyl-1-[4-(3-pyrrolidin-1-ylpropoxy)phenyl]-1H-pyrazole]"
10,< 10 nM,"Cc1cc(OCCCN2CCCCC2)ccc1-n1nc(C(C)C)cc1C(C)C [Example 62, 3,5-Diisopropyl-1-[2-methyl-4-(3-piperidin-1-ylpropoxy)phenyl]-1H-pyrazole]"
11,< 100 nM,"FC(F)(F)c1cc(-c2cc3ccccc3o2)n(-c2ccc(OCCCN3CCCC3)cc2)n1 [Example 63, 5-Benzofuran-2-yl-1-[4-(3-pyrrolidin-1-ylpropoxy)phenyl]-3-trifluoromethyl-1H-pyrazole]"
12,< 1 nM,"Cc1cc(C(=O)NC2CCCCC2)n(-c2ccc(OCCCN3CCCC3)cc2)n1 [Example 73, 5-Methyl-2-[4-(3-pyrrolidin-1-yl-propoxy)-phenyl]-2H-pyrazole-3-carboxylic acid cyclohexylamide]"
13,< 10 nM,"CC(C)c1cc(C(C)C)n(-c2ccc(OCCCN3CCCCC3)cc2)n1 [Example 25, 3,5-Diisopropyl-1-[4-(3-piperidin-1-yl-propoxy)-phenyl]-1H-pyrazole]"
14,< 10 nM,"c1ccc2c(c1)cnn2-c1ccc(OCCCN2CCCC2)cc1 [Example 20, 1-[4-(3-Pyrrolidin-1-ylpropoxy)phenyl]-1H-indazole]"
15,< 10 nM,"Cc1nn(-c2ccc(OCCCN3CCCC3)cc2)c2c1CCCC2 [Example 55, 3-Methyl-1-[4-(3-pyrrolidin-1-yl-propoxy)-phenyl]-4,5,6,7-tetrahydro-1H-indazole]"
16,< 10 nM,"Cc1nn(-c2ccc(OCCCN3CCCC3C)cc2)c2c1sc1ccccc12 (centres unmarked) [Example 65, 3-Methyl-1-{4-[3-(2-methyl-pyrrolidin-1-yl)-propoxy]-phenyl}-1H-benzo[4,5]thieno[3,2-c]pyrazole]"
17,< 10 nM,"Cc1nn(-c2ccc(OCCCN3CCCC3)cc2)c(C)c1-c1ccccc1 [Example 39, 4-Phenyl-3,5-dimethyl-1-[4-(3-pyrrolidin-1-ylpropoxy)phenyl]-1H-pyrazole]"
18,< 100 nM,"Cc1cc(CC(C)C)n(-c2ccc(OCCCN3CCCCC3)cc2)n1 [Example 29, 5-Isobutyl-3-methyl-1-[4-(3-piperidin-1-ylpropoxy)-phenyl]-1H-pyrazole]"
19,< 1 nM,"Cc1cc(C(=O)NCC2CCCCC2)n(-c2ccc(OCCCN3CCCC3)cc2)n1 [Example 79, 5-Methyl-2-[4-(3-pyrrolidin-1-ylpropoxy)phenyl]-2H-pyrazole-3-carboxylic acid cyclohexylmethylamide]"
20,< 10 nM,"CCCCc1c(C)nn(-c2ccc(OCCCN3CCCC3)cc2)c1C [Example 38, 4-Butyl-3,5-dimethyl-1-[4-(3-pyrrolidin-1-ylpropoxy)phenyl]-1H-pyrazole]"
21,< 10 nM,"Cc1cc(CO)n(-c2ccc(OCCCN3CCCC3)cc2)n1 [Example 14, {5-Methyl-2-[4-(3-pyrrolidin-1-ylpropoxy)phenyl]-2H-pyrazol-3-yl}methanol]"
22,< 1000 nM,"CN(C)C1CCN(CCCOc2ccc(-n3nc(C(F)(F)F)c4oc5ccccc5c43)cc2)C1 (centres unmarked) [Example 68, Dimethyl-(1-{3-[4-(1-trifluoromethyl-8-oxa-2,3-diaza-cyclopenta[a]inden-3-yl)-phenoxy]-propyl}-pyrrolidin-3-yl)-amine]"
23,< 100 nM,"C[C@@H]1CCCN1CCCOc1ccc(-n2nc(C(F)(F)F)cc2-c2ccccc2)cc1 [Example 51, 1-{4-[3-(2-(R)-Methyl-pyrrolidin-1-yl)-propoxy]-phenyl}-5-phenyl-3-trifluoromethyl-1H-pyrazole]"
24,< 10 nM,"Cc1cc(-c2ccccc2)nn1-c1ccc(OCCCN2CCCC2)cc1 [Example 40, 5-Methyl-3-phenyl-1-[4-(3-pyrrolidin-1-ylpropoxy)phenyl]-1H-pyrazole]"
25,< 10 nM,"Cc1cc(C(C)(C)C)n(-c2ccc(OCCCN3CCCC3)cc2)n1 [Example 33, 5-tert-Butyl-3-methyl-1-[4-(3-pyrrolidin-1-ylpropoxy)-phenyl]-1H-pyrazole]"
26,< 100 nM,"Cc1cc(CC(C)C)n(-c2ccc(OCCCN3CCCC3)cc2)n1 [Example 28, 5-Isobutyl-3-methyl-1-[4-(3-pyrrolidin-1-ylpropoxy)-phenyl]-1H-pyrazole]"
27,< 10 nM,"Cc1nn(-c2ccc(OCCCN3CCCC3)cc2)c2c1CCc1ccccc1-2 [Example 1, 3-Methyl-1-[4-(3-pyrrolidin-1-ylpropoxy)phenyl]-4,5-dihydro-1H-benzo[g]indazole]"
28,< 1000 nM,"CCc1cc(CC)n(-c2ccc(OCCCN3CCOCC3)cc2)n1 [Example 23, 3,5-Diethyl-1-[4-(3-morpholin-1-ylpropoxy)phenyl]-1H-pyrazole]"
29,< 10 nM,"Cc1nn(-c2ccc(OCCCN3CCCC3)cc2)c2c1sc1ccccc12 [Example 64, 3-Methyl-1-[4-(3-pyrrolidin-1-yl-propoxy)-phenyl]-1H-benzo[4,5]thieno[3,2-c]pyrazole]"
30,< 10 nM,"CCc1cc(CC)n(-c2ccc(OCCCN3CCCC3)cc2)n1 [Example 21, 3,5-Diethyl-1-[4-(3-pyrrolidin-1-ylpropoxy)phenyl]-1H-pyrazole]"

row,Molecule,Ki
1,Cc1cc(-c2ccccc2)n(-c2ccc(OCCCN3CCCC3)cc2)n1 [Example 41],< 10 nM
2,"3-Phenyl-1-[4-(3-pyrrolidin-1-ylpropoxy)phenyl]-4,5,6,7-tetrahydro-1H-indazole [Example 43]",< 1000 nM
